# Test results as given in ChEMBL document CHEMBL3351718 (Bioorg Med Chem Lett, 2014).
# Tests used:
# [1] = biological target: Hepatocyte growth factor receptor (Homo sapiens, UniProt P08581); experiment: Inhibition of recombinant MET kinase domain (unknown origin)
# [2] = biological target: Vascular endothelial growth factor receptor 2 (Homo sapiens, UniProt P35968); experiment: Inhibition of recombinant VEGFR2 kinase domain (unknown origin)
# [3] = biological target: Proto-oncogene tyrosine-protein kinase receptor Ret (Homo sapiens, UniProt P07949); experiment: Inhibition of RET (unknown origin)
# Chain of Proto-oncogene tyrosine-protein kinase receptor Ret (P07949 whole entry): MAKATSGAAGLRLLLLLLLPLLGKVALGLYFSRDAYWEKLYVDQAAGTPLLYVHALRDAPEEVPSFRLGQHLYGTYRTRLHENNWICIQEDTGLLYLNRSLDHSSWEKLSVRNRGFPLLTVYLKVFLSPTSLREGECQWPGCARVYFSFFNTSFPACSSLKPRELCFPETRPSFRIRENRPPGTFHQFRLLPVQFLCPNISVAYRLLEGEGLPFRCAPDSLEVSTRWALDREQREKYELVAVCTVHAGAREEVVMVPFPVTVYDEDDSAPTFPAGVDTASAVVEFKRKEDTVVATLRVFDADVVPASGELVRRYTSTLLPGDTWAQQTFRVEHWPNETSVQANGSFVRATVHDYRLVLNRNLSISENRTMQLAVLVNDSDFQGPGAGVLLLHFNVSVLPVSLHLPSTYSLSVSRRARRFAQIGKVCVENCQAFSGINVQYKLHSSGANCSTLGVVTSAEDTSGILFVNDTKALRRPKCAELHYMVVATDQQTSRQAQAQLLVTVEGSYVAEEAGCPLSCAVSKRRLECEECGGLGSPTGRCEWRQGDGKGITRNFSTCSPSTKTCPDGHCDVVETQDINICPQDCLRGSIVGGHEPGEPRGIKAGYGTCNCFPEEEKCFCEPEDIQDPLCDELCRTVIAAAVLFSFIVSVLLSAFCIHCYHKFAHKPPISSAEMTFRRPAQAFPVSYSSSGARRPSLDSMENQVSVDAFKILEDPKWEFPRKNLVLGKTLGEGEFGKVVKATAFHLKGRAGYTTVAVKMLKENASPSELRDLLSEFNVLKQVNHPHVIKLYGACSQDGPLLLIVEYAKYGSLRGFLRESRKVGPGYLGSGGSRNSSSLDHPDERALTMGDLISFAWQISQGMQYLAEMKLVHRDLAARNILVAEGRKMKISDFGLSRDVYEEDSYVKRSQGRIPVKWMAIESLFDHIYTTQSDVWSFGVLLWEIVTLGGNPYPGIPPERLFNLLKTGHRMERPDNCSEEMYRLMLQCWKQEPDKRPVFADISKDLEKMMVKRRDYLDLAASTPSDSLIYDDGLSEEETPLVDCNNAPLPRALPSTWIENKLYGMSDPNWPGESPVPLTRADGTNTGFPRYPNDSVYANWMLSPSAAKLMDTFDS
# [4] = biological target: Mast/stem cell growth factor receptor Kit (Homo sapiens, UniProt P10721); experiment: Inhibition of c-Kit (unknown origin)
# Chain of Mast/stem cell growth factor receptor Kit (P10721 whole entry): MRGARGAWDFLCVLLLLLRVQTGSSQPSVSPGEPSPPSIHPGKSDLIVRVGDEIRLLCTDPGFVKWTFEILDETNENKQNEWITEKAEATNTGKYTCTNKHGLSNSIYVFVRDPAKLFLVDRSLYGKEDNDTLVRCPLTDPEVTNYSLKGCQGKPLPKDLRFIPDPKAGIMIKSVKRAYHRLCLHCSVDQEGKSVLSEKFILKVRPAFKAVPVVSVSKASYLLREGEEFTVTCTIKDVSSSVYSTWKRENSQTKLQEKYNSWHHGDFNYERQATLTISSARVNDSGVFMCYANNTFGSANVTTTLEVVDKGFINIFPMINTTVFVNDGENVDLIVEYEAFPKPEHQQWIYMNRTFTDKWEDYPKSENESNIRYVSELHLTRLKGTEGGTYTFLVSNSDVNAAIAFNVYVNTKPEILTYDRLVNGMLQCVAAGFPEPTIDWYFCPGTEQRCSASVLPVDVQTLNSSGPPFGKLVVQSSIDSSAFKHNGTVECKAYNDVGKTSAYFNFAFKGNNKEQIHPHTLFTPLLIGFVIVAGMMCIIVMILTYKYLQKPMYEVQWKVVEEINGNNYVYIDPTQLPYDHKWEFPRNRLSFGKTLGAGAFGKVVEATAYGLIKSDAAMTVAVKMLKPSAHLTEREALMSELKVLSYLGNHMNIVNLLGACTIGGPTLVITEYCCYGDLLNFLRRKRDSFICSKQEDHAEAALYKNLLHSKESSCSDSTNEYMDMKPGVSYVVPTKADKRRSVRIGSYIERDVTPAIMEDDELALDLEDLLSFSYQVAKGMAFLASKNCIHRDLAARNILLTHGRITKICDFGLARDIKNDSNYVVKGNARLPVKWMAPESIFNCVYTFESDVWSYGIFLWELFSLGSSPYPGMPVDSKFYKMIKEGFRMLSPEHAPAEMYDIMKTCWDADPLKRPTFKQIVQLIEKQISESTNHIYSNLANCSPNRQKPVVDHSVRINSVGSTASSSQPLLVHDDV
# HUVEC = experiment: Growth inhibition of HUVEC cells; details: Homo sapiens
# [5] = Growth inhibition of human MKN45 cells; details: MKN-45
# Chain of Hepatocyte growth factor receptor (P08581 whole entry, the tested form may be a part): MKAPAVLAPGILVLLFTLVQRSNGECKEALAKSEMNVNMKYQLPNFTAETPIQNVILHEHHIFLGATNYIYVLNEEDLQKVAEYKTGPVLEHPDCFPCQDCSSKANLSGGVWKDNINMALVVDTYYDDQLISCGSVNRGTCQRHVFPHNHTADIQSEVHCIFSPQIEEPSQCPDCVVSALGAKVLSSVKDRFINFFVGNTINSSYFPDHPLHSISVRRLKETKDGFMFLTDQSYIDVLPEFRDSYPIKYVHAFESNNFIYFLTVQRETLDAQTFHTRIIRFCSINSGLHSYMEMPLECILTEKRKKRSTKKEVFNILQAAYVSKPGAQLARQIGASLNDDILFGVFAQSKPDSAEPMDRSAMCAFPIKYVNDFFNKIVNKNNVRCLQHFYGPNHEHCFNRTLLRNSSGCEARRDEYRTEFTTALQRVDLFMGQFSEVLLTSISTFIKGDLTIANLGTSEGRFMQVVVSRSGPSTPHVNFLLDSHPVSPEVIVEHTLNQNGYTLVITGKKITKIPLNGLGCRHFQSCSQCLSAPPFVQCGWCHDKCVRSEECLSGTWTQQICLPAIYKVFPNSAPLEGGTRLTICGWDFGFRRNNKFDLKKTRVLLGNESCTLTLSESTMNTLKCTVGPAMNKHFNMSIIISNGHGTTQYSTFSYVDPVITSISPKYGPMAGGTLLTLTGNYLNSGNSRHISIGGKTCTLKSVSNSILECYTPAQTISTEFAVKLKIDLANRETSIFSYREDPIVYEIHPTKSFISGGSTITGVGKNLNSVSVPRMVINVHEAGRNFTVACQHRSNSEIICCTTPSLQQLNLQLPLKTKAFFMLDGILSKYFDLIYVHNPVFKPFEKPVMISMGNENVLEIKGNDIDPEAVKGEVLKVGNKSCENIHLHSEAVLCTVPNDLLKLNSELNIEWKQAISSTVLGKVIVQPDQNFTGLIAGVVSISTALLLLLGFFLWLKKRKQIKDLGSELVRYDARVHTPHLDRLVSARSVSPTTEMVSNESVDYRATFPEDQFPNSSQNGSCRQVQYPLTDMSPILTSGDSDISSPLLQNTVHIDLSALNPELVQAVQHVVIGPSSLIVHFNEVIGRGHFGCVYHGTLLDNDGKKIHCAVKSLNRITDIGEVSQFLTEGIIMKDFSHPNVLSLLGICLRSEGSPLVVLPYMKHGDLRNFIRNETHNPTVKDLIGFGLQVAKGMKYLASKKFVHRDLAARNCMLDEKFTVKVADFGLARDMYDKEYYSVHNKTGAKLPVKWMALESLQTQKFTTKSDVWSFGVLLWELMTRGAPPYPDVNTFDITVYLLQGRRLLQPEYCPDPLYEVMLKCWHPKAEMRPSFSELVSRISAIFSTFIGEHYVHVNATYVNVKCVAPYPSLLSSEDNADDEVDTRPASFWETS
# Chain of Vascular endothelial growth factor receptor 2 (P35968 whole entry, the tested form may be a part): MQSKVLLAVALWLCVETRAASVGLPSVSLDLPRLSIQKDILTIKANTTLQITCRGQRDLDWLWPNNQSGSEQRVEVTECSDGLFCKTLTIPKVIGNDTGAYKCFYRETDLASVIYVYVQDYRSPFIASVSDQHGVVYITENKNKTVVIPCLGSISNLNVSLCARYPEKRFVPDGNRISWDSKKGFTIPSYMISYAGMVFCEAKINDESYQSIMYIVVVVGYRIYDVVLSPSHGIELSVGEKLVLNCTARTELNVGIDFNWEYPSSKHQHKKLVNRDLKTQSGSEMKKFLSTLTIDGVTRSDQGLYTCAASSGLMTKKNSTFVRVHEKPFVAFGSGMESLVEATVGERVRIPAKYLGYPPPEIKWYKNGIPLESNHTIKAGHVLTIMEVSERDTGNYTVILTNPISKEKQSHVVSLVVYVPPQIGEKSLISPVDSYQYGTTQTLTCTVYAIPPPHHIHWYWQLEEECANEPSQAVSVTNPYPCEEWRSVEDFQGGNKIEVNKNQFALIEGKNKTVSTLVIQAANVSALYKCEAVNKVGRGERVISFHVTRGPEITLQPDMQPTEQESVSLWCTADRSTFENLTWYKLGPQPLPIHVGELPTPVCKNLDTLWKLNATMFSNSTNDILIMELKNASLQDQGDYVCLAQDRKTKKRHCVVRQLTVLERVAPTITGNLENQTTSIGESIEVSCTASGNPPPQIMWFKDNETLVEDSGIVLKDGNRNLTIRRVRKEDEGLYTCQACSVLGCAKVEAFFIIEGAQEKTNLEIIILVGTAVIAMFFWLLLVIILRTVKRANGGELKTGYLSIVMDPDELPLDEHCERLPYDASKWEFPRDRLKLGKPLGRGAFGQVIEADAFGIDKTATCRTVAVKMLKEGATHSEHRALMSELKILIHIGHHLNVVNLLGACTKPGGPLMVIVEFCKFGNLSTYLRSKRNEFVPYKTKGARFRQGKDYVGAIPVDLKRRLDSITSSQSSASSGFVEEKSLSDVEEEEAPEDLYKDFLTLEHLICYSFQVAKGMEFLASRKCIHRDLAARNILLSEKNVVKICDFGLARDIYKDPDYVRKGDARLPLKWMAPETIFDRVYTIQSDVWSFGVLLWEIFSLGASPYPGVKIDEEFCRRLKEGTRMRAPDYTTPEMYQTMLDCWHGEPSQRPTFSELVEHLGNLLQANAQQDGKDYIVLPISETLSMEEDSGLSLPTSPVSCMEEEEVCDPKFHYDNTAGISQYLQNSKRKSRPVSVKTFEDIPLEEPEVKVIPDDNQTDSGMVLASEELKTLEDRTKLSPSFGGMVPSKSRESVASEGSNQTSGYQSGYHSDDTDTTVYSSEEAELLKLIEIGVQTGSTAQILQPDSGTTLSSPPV
IC50 [1],IC50 [2],Compound,other results
> 25 µM,,Nc1nccc(Oc2ccc(-n3cccc(C(=O)NCc4ccc(F)cc4)c3=O)cc2F)c1Cl,
> 25 µM,,Nc1nccc(Oc2ccc(-n3ccc(C(=O)Nc4ccc(F)cc4)cc3=O)cc2F)c1Cl,
> 25 µM,,Nc1nccc(Oc2ccc(-n3cc(C(=O)Nc4ccc(F)cc4)ccc3=O)cc2F)c1Cl,
,> 25 µM,COc1cc(=O)n(-c2ccc(Oc3ccnc(N)c3Cl)c(F)c2)cc1C(=O)NCc1ccc(F)cc1,IC50 [3]: > 25 µM; IC50 [4]: > 25 µM; IC50 (HUVEC): 2.41 µM; IC50 [5]: > 25 µM
,> 25 µM,COc1cc(=O)n(-c2ccc(Oc3ccnc(N)c3I)c(F)c2)cc1C(=O)NCc1ccc(F)cc1,IC50 [3]: > 25 µM; IC50 [4]: > 25 µM; IC50 (HUVEC): 2.41 µM; IC50 [5]: > 25 µM

# Second part, the compound before the results:
Compound,IC50 [1],IC50 [2],other results
Nc1nccc(Oc2ccc(-n3cccc(C(=O)Nc4ccc(F)cc4)c3=O)cc2F)c1Cl,> 25 µM,,
Nc1nccc(Oc2ccc(-n3ccc(C(=O)NCc4ccc(F)cc4)cc3=O)cc2F)c1Cl,> 25 µM,,
Nc1nccc(Oc2ccc(-n3cc(C(=O)NCc4ccc(F)cc4)ccc3=O)cc2F)c1Cl,,> 25 µM,
